The target of assay [1] is T1, SARS-CoV helicase (Severe acute respiratory syndrome coronavirus, UniProt P0C6X7). The assay is classed as biochemical.
Assay [2] has as its target T1, SARS-CoV helicase. The assay is classed as biochemical. This is another data set of the same source.

We go through 1 molecule from PMC7127646 (Bioorganic & Medicinal Chemistry Letters, 2009).

As for `O=c1c(O)c(-c2ccc3c(c2)OCO3)oc2cc(O)cc(O)c12` [Compound 3b, 2-Benzo[1,3]dioxol-5-yl-3,5,7-trihydroxy-chromen-4-one], in assay [1], the “inhibition of helicase ATPase activity (in words)” value was “failed to show any inhibition”. The “inhibition of duplex DNA-unwinding activity (in words)” value in assay [2] was “failed to show any inhibition”.
